This is an account of results in patent US20120302609A1, “Pyrazolines for the Modulation of PKM2” (Dynamix Pharmaceuticals LTD., priority 2011, published 2012).

Some results are limits rather than exact numbers.

For one data set, the target named is PKL (Homo sapiens, UniProt P30613). In words: Isoform selectivity of pyruvate kinases. In kind it is biochemical.
For the next data set, the system named is H1299 (lung). In words: Cell proliferation assay (CellTiter-Glo Luminescent). It is filed as cell-based, human. To be noted: 96 hr. How it is done: 1. Cells were grown according to the ATCC conditions. 2. Cell feeding (passaging) was timed such that the cells were in exponential growth phase at the time of the assay.
3. On day 1, H1299 cells were counted. Cell numbers were adjusted to the desired cell concentration in Media 1: RPMI 1640 Invitrogen 11879020 (that contained no glucose or pyruvate) with 10% FBS, and 1 mM D-Glucose (4 μl of 2.5 M D-glucose G8769 was added in preparing 10 ml RPMI media with 1 mM glucose). A 200 μl of H1299 cell suspension was added to appropriate wells in the 96-well plates, and incubated at 37° C. in the CO2 cell incubator under normal growing conditions for overnight. 4. On day 2, a 100 mM stock concentration of test compounds in 100% DMSO was prepared and serially diluted with 100% DMSO to 33.33 mM, 11.11 mM, and 3.7 mM. A 1:1000 dilution was made to each concentration in media 1 (yielding 0.1% final DMSO concentration). The media was aspirated completely from the cell plate. Each 100 μl of the following solutions (100 μM, 33.33 μM, 11.11 μM, and 3.7 μM) was added to the cells. DMSO in a final concentration of 0.1%, and media without DMSO, were added to the cells and used as a negative control. Empty wells around the experimental wells were filled with PBS. The plate was sealed with parafilm to reduce evaporation. 5. The plate was incubated under normal conditions (5% CO2, and 95% air), for 96 hours at 37° C. 6. On day 6 (after 96 hr incubation), the plate was equilibrated to room temperature for approximately 30 minutes. A 100 μl of CellTiter-Glo Reagent was added in each well of the plate. Contents were mixed for 2 minutes on an orbital shaker to induce cell lysis. The plate was incubated at room temperature for 10 minutes to stabilize luminescent signal. Luminescence was recorded with Flexstation 3.
Unless noted otherwise, proliferation of control or compound treated H1299 cells was measured using CellTiter-Glo Luminescent assay following 96 hr incubation of the cells with and without test compounds. The AC50 values, shown in Table 3, were coded according to follows: A: <3 μM; B: 3-10 μM; C: 10-20 μM; or D: >20 μM.
(In ATP-based viability assays light output follows the ATP content of the culture.)

The subject of the next data set is BT-549 (breast). The data set is described as above. In kind it is cell-based. The settings on record: Homo sapiens, Complete media.
The next data set concerns the target T1, PKM2, human recombinant (Homo sapiens, UniProt P14618).
T1 construct: purchased BPS 50295
The data set can be described thus: PKM2 enzymatic activity assay (Kinase-Glo Plus luminescence).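 As to Max activity Group: percent increase over no-compound signal after subtracting the no-PKM2 background.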 In kind it is biochemical. The settings on record: for AC50: 0.1 nM PKM2, 0.1 mM ADP, 0.5 mM PEP, 1 hour, room temperature, read-out: AC50 group; for Emax: 1 h, maximum percent activity, luminescence without compound = 0% activity, read-out: Max activity Group. In outline: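 Activation assay: 0.1 nM recombinant human PKM2 with 0.1 mM ADP and 0.5 mM PEP in imidazole buffer pH 7.2, 1 hour at room temperature, in duplicate; ATP produced read by Kinase-Glo Plus luminescence. % activity relative to no-compound and no-enzyme wells; AC50 as half-maximal activation from sigmoidal fit; FBP 0.5 mM positive control.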
(In general: Kinase-Glo measures the ATP left after a reaction by luminescence.)

The subject of data set [1] is HT-29 cells (a colorectal cancer cell line). In words: Combination with 5-FU on HT-29 cells. The settings on record: FIG. 5. In kind it is cell-based, human.
The mark [2] stands for this setting: Homo sapiens, NCI-H1299, 1 mM glucose.

T1 sequence (P14618 whole entry): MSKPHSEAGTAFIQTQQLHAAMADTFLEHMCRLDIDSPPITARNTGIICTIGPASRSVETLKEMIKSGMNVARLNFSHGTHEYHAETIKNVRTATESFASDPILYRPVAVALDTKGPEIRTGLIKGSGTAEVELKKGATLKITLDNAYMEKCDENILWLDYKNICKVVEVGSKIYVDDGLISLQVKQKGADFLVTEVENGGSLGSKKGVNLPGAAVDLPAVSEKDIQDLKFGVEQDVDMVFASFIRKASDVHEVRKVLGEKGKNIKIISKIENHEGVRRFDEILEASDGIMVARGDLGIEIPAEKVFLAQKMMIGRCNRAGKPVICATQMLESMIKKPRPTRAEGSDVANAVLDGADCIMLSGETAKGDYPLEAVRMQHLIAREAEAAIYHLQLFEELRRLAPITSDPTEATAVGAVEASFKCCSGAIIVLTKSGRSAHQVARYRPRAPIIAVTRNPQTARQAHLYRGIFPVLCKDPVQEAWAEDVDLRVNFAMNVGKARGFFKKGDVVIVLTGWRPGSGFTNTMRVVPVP
Sequence of PKL (P30613 1-543 isoform P30613-2): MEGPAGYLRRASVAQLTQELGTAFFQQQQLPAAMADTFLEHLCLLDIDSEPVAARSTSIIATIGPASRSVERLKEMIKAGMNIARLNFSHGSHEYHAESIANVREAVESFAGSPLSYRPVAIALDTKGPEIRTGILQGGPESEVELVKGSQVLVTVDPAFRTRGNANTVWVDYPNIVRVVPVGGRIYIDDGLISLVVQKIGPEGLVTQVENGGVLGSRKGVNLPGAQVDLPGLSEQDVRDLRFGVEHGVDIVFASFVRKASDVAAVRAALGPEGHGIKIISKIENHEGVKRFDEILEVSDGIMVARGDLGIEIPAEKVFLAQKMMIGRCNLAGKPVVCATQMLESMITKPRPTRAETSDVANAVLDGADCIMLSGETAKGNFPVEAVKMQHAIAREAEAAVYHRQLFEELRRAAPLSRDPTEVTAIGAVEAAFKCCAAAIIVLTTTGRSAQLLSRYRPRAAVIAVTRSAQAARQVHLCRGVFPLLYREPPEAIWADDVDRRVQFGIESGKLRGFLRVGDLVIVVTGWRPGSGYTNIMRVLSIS

`COc1ccc([C@@H]2CC(c3ccc(NS(=O)(=O)c4ccc(F)cc4)cc3)=NN2C(C)=O)cc1` [Compound 13A, (S)—N-(4-(1-acetyl-5-(4-methoxyphenyl)-4,5-dihydro-1H-pyrazol-3-yl)phenyl)-4-fluorobenzenesulfonamide]: the AC50 (commonly the midpoint of the concentration-response curve, whichever way the signal moves) was more than 11 µM at PKL; 10 to 20 µM in the data set on H1299 (lung) (5 mM glucose); 10 to 20 µM in the data set with H1299 (lung) (Complete media); 10 to 20 µM in the data set on H1299 (lung) (setting [2]); 10 to 20 µM with BT-549 (breast) (96 hr, CellTiter-Glo); not above 1 µM on PKM2, human recombinant. Moreover, the Emax on PKM2, human recombinant is 130 to 200%.

`CCS(=O)(=O)Nc1ccc(C2=NN(C(C)=O)C(c3ccc(OC)cc3)C2)cc1` (racemic) [Compound 1A, N-(4-(1-acetyl-5-(4-methoxyphenyl)-4,5-dihydro-1H-pyrazol-3-yl)phenyl)ethanesulfonamide]: the “effect in combination with 5-FU” value in data set [1] was “at least additive”. Moreover, the AC50 is 10 to 20 µM in the data set on H1299 (lung) (setting [2]); more than 20 µM in the data set with BT-549 (breast) (Assay duration: 72 hours, Readout: CellTiter Glo); not above 1 µM at PKM2, human recombinant. On PKM2, human recombinant, the Emax was in the range of 130 to 200%.
